In test [1] the test system is control sera (pooled serum of ten healthy LUMC hospital workers; commercial negative donor pooled serum from the Dutch bloodbank). It is filed as binding, human. Details: Binding of Control serum LUMC to linear peptides / Binding of Control serum Blood-bank to linear peptides / Binding of Control serum LUMC to looped peptides / Binding of Control Serum Blood-Bank to Looped peptides / Binding of Control serum LUMC to linear peptides of the protein M of SARS-CoV Urbani / Binding of Control serum Blood-bank to linear peptides of the protein M of SARS-CoV Urbani / Binding of Control serum LUMC to looped peptides of the protein M of SARS-CoV Urbani / Binding of Control Serum Blood-Bank to Looped peptides of the protein M of SARS-CoV Urbani: unit not given here.

In test [2] the test system is antibodies in sera from SARS patients (sera 1a, 1b, 2, 6, 37, 62, London, SARS-yellow, SARS-green). It is filed as binding, human. Also on record: Binding of serum 6 to linear peptides of protein X1 of SARS-CoV Urbani / Binding of serum 37 to linear peptides of protein X1 of SARS-CoV Urbani / Binding of serum 6 to looped/cyclic peptide (PEPSCAN-ELISA) / Binding of serum 37 to looped/cyclic peptide (PEPSCAN-ELISA) / Binding of serum 37 to looped/cyclic peptides of protein X1 of SARS-CoV Urbani / Binding of serum 6 to linear peptides of protein X2 / Binding of serum 37 to linear peptides of protein X2 / Binding of serum 37 to looped/cyclic peptides of protein X2 of SARS-CoV Urbani / Binding of serum 6 to linear peptides of protein M of SARS-CoV Urbani / Binding of serum 37 to linear peptides of protein M of SARS-CoV Urbani / Binding of serum 6 to looped/cyclic peptides of protein M of SARS-CoV Urbani / Binding of serum 37 to looped/cyclic peptides of protein M of SARS-CoV Urbani / Binding of serum 6 to linear peptides of protein X3 of SARS-CoV Urbani / Binding of serum 37 to linear peptides of protein X3 of SARS-CoV Urbani / Binding of serum 37 to looped/cyclic peptides of protein X3 of SARS-CoV Urbani / Binding of serum 6 to linear peptides of protein X4 of SARS-CoV Urbani / Binding of serum 37 to linear peptides of protein X4 of SARS-CoV Urbani / Binding of serum 37 to looped/cyclic peptides of protein X4 of SARS-CoV Urbani / Binding of serum 6 to linear peptides of protein X5 of SARS-CoV Urbani / Binding of serum 37 to linear peptides of protein X5 of SARS-CoV Urbani / Binding of serum 37 to looped/cyclic peptides of protein X5 of SARS-CoV Urbani / Binding of serum 6 to linear peptides of protein N of SARS-CoV Urbani / Binding of serum 37 to linear peptides of protein N of SARS-CoV Urbani / Binding of serum 6 to linear peptide (PEPSCAN-ELISA) / Binding of serum 1a to looped/cyclic peptides of protein N of SARS-CoV Urbani / Binding of serum 1b to looped/cyclic peptides of protein N of SARS-CoV Urbani / Binding of serum 2 to looped/cyclic peptides of protein N of SARS-CoV Urbani / Binding of serum 6 to looped/cyclic peptides of protein N of SARS-CoV Urbani / Binding of serum 37 to looped/cyclic peptides of protein N of SARS-CoV Urbani / Binding of serum 62 to looped/cyclic peptides of protein N of SARS-CoV Urbani / Binding of serum London to looped/cyclic peptides of protein N of SARS-CoV Urbani / Binding of serum SARS-green to looped/cyclic peptides of protein N of SARS-CoV Urbani: unit not given here.

Test [3] concerns rabbit serum obtained by immunizing a rabbit with the SARS-CoV strain Frankfurt 1. It is filed as binding. Details: Binding of a rabbit serum to linear peptides / Binding of a rabbit serum to looped peptides / Rabbit serum linear peptides / Rabbit serum looped peptides / Binding of a rabbit serum to linear peptides of protein N of SARS-CoV Urbani (Rabbit serum linear peptides) / Binding of a rabbit serum to looped/cyclic peptides of protein N of SARS-CoV Urbani (Rabbit serum looped peptides): unit not given here.

Turning to LMWLSYFVASFRLFA, in test [1], the “Binding of Control Serum Blood-Bank to Looped peptides of the protein M of SARS-CoV Urbani” value worked out at 0.6, the “Binding of Control serum Blood-bank to linear peptides of the protein M of SARS-CoV Urbani” value is 0.5, the “Binding of Control serum LUMC to linear peptides of the protein M of SARS-CoV Urbani” value came to 0.4 and the “Binding of Control serum LUMC to looped peptides of the protein M of SARS-CoV Urbani” value came to 0.6. For the same sequence, in test [2], the “Binding of serum 1a to linear peptides of protein M of SARS-CoV Urbani” value came out at 0.6, the “Binding of serum 1b to linear peptides of protein M of SARS-CoV Urbani” value worked out at 0.4, the “Binding of serum 2 to linear peptides of protein M of SARS-CoV Urbani” value amounted to 0.4 and the “Binding of serum 6 to linear peptides of protein M of SARS-CoV Urbani” value is listed as 0.3. In addition, in test [2], the “Binding of serum 37 to linear peptides of protein M of SARS-CoV Urbani” value is on record as 0.3, the “Binding of serum 62 to linear peptides of protein M of SARS-CoV Urbani” value is 0.4, the “Binding of serum London to linear peptides of protein M of SARS-CoV Urbani” value came to 0.3 and the “Binding of serum SARS-green to linear peptides of protein M of SARS-CoV Urbani” value turned out to be 0.5. Further, in test [2], the “Binding of serum SARS-yellow to linear peptides of protein M of SARS-CoV Urbani” value was 0.1; the “Recognition of the peptide by sera of SARS-CoV infected individuals, and form (linear, looped/cyclic) in which it is recognized” value was “recognized in looped/cyclic form”. In addition, in test [3], the “Rabbit serum linear peptides” value is listed as 0.0 and the “Rabbit serum looped peptides” value amounted to 0.3.
Take LNKRWQLALYKGFQF: in test [1], the “Binding of Control Serum Blood-Bank to Looped peptides” value was 0.6, the “Binding of Control serum Blood-bank to linear peptides” value came to 0.8, the “Binding of Control serum LUMC to linear peptides” value came out at 0.6 and the “Binding of Control serum LUMC to looped peptides” value is 0.6. In test [2], the “Binding of serum 1a to linear peptides of protein X1 of SARS-CoV Urbani” value is recorded as 0.6, the “Binding of serum 1a to looped/cyclic peptide (PEPSCAN-ELISA)” value was 0.6, the “Binding of serum 1b to linear peptides of protein X1 of SARS-CoV Urbani” value turned out to be 0.7 and the “Binding of serum 1b to looped/cyclic peptide (PEPSCAN-ELISA)” value was determined as 0.4. In test [2], the “Binding of serum 2 to linear peptides of protein X1 of SARS-CoV Urbani” value is listed as 0.8, the “Binding of serum 2 to looped/cyclic peptide (PEPSCAN-ELISA)” value is recorded as 0.5, the “Binding of serum 6 to linear peptides of protein X1 of SARS-CoV Urbani” value turned out to be 0.8 and the “Binding of serum 6 to looped/cyclic peptide (PEPSCAN-ELISA)” value was 0.5. Moreover, in test [2], the “Binding of serum 37 to linear peptides of protein X1 of SARS-CoV Urbani” value stood at 0.6, the “Binding of serum 37 to looped/cyclic peptide (PEPSCAN-ELISA)” value came to 0.5, the “Binding of serum 62 to linear peptides of protein X1 of SARS-CoV Urbani” value was found to be 0.6 and the “Binding of serum 62 to looped/cyclic peptide (PEPSCAN-ELISA)” value was determined as 0.6. Further, in test [2], the “Binding of serum London to linear peptides of protein X1 of SARS-CoV Urbani” value is recorded as 0.3, the “Binding of serum London to looped/cyclic peptide (PEPSCAN-ELISA)” value stood at 0.3, the “Binding of serum SARS-green to linear peptides of protein X1 of SARS-CoV Urbani” value is given as 0.3 and the “Binding of serum SARS-green to looped/cyclic peptide (PEPSCAN-ELISA)” value amounted to 0.1. In test [2], the “Binding of serum SARS-yellow to linear peptides of protein X1 of SARS-CoV Urbani” value is given as 0.3 and the “Binding of serum SARS-yellow to looped/cyclic peptide (PEPSCAN-ELISA)” value turned out to be 0.4. Moreover, in test [3], the “Recognition of the peptide by the rabbit serum” value is recorded as “recognized”.
In the case of LNVPLRGTIVTRPLM, in test [1], the “Binding of Control Serum Blood-Bank to Looped peptides of the protein M of SARS-CoV Urbani” value is recorded as 0.6, the “Binding of Control serum Blood-bank to linear peptides of the protein M of SARS-CoV Urbani” value stood at 0.7, the “Binding of Control serum LUMC to linear peptides of the protein M of SARS-CoV Urbani” value came to 0.5 and the “Binding of Control serum LUMC to looped peptides of the protein M of SARS-CoV Urbani” value was 0.7. In test [2], the “Binding of serum 1a to linear peptides of protein M of SARS-CoV Urbani” value was 0.7, the “Binding of serum 1b to linear peptides of protein M of SARS-CoV Urbani” value is recorded as 0.5, the “Binding of serum 2 to linear peptides of protein M of SARS-CoV Urbani” value amounted to 0.6 and the “Binding of serum 6 to linear peptides of protein M of SARS-CoV Urbani” value came to 0.5. For the same sequence, in test [2], the “Binding of serum 37 to linear peptides of protein M of SARS-CoV Urbani” value stood at 0.5, the “Binding of serum 62 to linear peptides of protein M of SARS-CoV Urbani” value is reported as 0.5, the “Binding of serum London to linear peptides of protein M of SARS-CoV Urbani” value was found to be 0.4 and the “Binding of serum SARS-green to linear peptides of protein M of SARS-CoV Urbani” value was found to be 0.4. In test [2], the “Binding of serum SARS-yellow to linear peptides of protein M of SARS-CoV Urbani” value is 0.1; the “Recognition of the peptide by sera of SARS-CoV infected individuals, and form (linear, looped/cyclic) in which it is recognized” value is on record as “recognized in looped/cyclic form”. In test [3], the “Rabbit serum linear peptides” value is 0.2 and the “Rabbit serum looped peptides” value was found to be 0.4.

These data come from patent publication US20070128217A1 (priority 2003, published 2007).
